Laboratory results: US10065963B2 (Incyte Corporation, priority 2015, dated 2018)
Counter-ions that a name gives are not always drawn.

Tests used:
[1] = system: Phosphorylated Ribosomal Protein S6 (RPS6) in THP-1 cells; test: THP-1 RPS6 ELISA assay; assay type: cell-based, human; conditions: Homo sapiens, THP-1, THP-1 cells, 10 nM MCP-1; read-out: PI3Kγ_THP1_RPS6_ELISA IC50
[2] = target: PI3Kγ (p110γ) Recombinant Human Protein (Homo sapiens (Human), UniProt P48736); test: PI3K-γ scintillation proximity assay; assay type: biochemical; conditions: 2 μM ATP, 20 μM PIP2
[3] = target: PI3Kδ (p110δ/p85α) Recombinant Human Protein (Homo sapiens (Human), UniProt O00329); test: PI3Kδ scintillation proximity assay; assay type: biochemical; conditions: 2 μM ATP, 20 μM PIP2
Chain of PI3Kδ (p110δ/p85α) Recombinant Human Protein (O00329 whole entry): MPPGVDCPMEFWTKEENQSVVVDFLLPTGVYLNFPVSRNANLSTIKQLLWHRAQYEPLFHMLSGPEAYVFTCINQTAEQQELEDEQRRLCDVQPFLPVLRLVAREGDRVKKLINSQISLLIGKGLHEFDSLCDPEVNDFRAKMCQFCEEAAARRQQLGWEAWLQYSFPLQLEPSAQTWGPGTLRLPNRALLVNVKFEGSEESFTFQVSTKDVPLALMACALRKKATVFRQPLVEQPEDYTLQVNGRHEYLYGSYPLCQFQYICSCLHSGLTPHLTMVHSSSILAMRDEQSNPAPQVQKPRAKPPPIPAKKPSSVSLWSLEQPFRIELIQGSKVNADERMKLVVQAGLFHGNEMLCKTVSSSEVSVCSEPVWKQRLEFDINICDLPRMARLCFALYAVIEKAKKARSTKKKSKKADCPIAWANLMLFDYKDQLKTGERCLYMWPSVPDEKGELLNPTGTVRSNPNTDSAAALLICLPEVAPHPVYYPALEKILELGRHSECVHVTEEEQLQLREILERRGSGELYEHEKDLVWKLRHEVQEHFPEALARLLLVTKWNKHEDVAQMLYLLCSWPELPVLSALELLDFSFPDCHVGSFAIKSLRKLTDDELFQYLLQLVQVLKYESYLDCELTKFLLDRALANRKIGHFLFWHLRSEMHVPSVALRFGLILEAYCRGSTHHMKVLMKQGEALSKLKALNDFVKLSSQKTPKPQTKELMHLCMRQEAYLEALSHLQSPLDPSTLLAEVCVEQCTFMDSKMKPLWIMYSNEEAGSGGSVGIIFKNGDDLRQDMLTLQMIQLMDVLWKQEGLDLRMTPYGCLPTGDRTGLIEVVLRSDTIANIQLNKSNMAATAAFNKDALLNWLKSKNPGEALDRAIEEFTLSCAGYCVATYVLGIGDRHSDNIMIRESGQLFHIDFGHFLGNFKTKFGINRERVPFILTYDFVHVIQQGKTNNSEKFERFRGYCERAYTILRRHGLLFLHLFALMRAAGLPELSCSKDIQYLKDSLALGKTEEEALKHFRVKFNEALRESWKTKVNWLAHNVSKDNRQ
Chain of PI3Kδ (p110δ/p85α) Recombinant Human Protein (P27986 whole entry partner): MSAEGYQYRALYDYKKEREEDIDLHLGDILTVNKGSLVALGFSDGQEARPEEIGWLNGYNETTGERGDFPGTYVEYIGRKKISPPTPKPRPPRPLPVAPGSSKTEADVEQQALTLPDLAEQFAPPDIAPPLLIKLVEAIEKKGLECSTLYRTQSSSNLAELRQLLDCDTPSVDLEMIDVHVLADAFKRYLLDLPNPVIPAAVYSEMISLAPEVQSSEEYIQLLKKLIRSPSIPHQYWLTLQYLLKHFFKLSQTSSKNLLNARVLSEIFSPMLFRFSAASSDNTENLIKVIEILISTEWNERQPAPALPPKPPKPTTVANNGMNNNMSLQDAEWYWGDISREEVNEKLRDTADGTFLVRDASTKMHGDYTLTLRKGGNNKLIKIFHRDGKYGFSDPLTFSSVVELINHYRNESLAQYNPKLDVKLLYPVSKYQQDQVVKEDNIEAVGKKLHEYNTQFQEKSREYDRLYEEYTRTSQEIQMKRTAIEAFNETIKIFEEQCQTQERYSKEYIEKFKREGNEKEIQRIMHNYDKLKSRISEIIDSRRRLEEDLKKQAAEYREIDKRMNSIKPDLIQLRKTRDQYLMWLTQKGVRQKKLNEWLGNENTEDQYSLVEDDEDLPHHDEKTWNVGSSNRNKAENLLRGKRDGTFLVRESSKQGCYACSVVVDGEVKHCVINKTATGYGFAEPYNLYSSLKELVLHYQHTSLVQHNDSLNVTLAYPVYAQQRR

Chain of PI3Kγ (p110γ) Recombinant Human Protein (P48736 whole entry): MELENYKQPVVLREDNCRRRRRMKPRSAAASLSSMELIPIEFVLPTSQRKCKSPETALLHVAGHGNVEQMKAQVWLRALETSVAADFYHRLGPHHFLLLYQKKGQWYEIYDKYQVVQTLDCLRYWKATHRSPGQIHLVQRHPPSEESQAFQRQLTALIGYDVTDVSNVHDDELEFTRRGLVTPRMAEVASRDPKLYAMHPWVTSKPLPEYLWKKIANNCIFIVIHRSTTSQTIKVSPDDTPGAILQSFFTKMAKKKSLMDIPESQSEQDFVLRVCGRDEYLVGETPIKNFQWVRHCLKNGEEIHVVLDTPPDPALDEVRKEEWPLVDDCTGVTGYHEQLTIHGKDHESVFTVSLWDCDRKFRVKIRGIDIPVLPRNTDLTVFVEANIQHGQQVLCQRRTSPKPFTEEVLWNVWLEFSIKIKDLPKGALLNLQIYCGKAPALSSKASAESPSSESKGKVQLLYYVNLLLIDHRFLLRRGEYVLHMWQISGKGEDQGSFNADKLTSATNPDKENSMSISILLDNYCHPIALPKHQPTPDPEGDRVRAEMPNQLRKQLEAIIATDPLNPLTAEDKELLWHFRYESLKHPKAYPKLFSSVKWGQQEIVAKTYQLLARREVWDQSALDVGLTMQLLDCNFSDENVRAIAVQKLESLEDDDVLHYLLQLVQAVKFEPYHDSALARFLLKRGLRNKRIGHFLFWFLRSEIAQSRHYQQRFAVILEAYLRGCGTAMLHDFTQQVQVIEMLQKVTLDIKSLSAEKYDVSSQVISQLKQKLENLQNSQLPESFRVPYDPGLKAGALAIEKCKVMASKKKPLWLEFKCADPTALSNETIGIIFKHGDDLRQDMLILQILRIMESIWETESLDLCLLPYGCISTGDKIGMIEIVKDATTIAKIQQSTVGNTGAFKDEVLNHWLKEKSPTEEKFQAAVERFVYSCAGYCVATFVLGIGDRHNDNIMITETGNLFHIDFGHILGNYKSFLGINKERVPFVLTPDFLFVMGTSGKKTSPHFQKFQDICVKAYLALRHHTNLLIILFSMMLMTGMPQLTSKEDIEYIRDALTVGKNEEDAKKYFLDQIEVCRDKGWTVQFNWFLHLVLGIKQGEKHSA

SMILES | IC50 [1] | IC50 [2] | IC50 [3]
CCOc1c(C(C)NC(=O)c2c(N)nn3cccnc23)cc(Cl)c2cnn(C)c12 (stereo not drawn) | < 500 nM |  | 
CC(NC(=O)c1c(N)nn2cccnc12)c1cc(Cl)c2cncn2c1N1CCC(C#N)C1 (racemic) [Example 32, 2-Amino-N-(1-(8-chloro-5-(3-cyanopyrrolidin-1-yl)imidazo[1,5-a]pyridin-6-yl)ethyl)pyrazolo[1,5-a]pyrimidine-3-carboxamide trifluoroacetate salt] | < 500 nM | < 100 nM | < 100 nM
CC(NC(=O)c1c(N)nn2cccnc12)c1cc(Cl)c2cncn2c1N1C[C@H](O)[C@@H](F)C1 (mixture of isomers) [Example 35, 2-Amino-N-(1-(8-chloro-5-((3S,4S)-3-fluoro-4-hydroxypyrrolidin-1-yl)imidazo[1,5-a]pyridin-6-yl)ethyl)pyrazolo[1,5-a]pyrimidine-3-carboxamide trifluoroacetate salt] | < 500 nM | < 100 nM | < 100 nM
CC(NC(=O)c1c(N)nn2cccnc12)c1cc(Cl)c2cn[nH]c2c1N1CCC(O)C1 (racemic) [Example 90A, 2-Amino-N-{1-[4-chloro-7-(3-hydroxypyrrolidin-1-yl)-2H-indazol-6-yl]ethyl}pyrazolo[1,5-a]pyrimidine-3-carboxamide bis(trifluoroacetate)] | < 500 nM | < 100 nM | < 500 nM
Cc1ncc2c(Cl)cc(C(C)NC(=O)c3c(N)nn4cccnc34)c(-c3cccnc3)n12 (racemic) [Example 120, 2-Amino-N-[1-(8-chloro-3-methyl-5-pyridin-3-ylimidazo[1,5-a]pyridin-6-yl)ethyl]pyrazolo[1,5-a]pyrimidine-3-carboxamide trifluoroacetate salt] | < 500 nM | < 100 nM | < 100 nM
Cc1nc(C#N)c2c(Cl)cc(C(C)NC(=O)c3c(N)nn4cccnc34)c(-c3ccccc3)n12 (racemic) [Example 125, 2-Amino-N-[1-(8-chloro-1-cyano-3-methyl-5-phenylimidazo[1,5-a]pyridin-6-yl)ethyl]pyrazolo[1,5-a]pyrimidine-3-carboxamide trifluoroacetate salt] | < 500 nM | < 100 nM | < 500 nM
C#Cc1nc(C)n2c(-c3ccccc3)c(C(C)NC(=O)c3c(N)nn4cccnc34)cc(Cl)c12 (racemic) [Example 126, 2-Amino-N-[1-(8-chloro-1-ethynyl-3-methyl-5-phenylimidazo[1,5-a]pyridin-6-yl)ethyl]pyrazolo[1,5-a]pyrimidine-3-carboxamide] | < 500 nM | < 100 nM | < 2000 nM
CC(NC(=O)c1c(N)nn2cccnc12)c1cc(Cl)c2c(Br)n[nH]c2c1-c1ccccc1 (stereo not drawn) [Example 23] | < 1000 nM |  | 
CCOc1c(C(C)NC(=O)c2c(N)nc3ccc(C)nn23)cc(Cl)c2cn[nH]c12 (stereo not drawn) [Example 46, 2-Amino-N-(1-(4-chloro-7-ethoxy-1H-indazol-6-yl)ethyl)-6-methylimidazo[1,2-b]pyridazine-3-carboxamide] |  | < 500 nM | < 500 nM
CCOc1c(C(C)NC(=O)c2c(N)nc3ccc(N4CCCCC4)nn23)cc(Cl)c2cn[nH]c12 (stereo not drawn) [Example 47, 2-Amino-N-(1-(4-chloro-7-ethoxy-1H-indazol-6-yl)ethyl)-6-(piperidin-1-yl)imidazo[1,2-b]pyridazine-3-carboxamide] |  | < 500 nM | < 500 nM
CCc1n[nH]c2c(-c3ccccc3)c(C(C)NC(=O)c3c(N)nn4cccnc34)cc(Cl)c12 (stereo not drawn) [Example 51, 2-Amino-N-(1-(4-chloro-3-ethyl-7-phenyl-1H-indazol-6-yl)ethyl)pyrazolo[1,5-a]pyrimidine-3-carboxamide trifluoroacetate] |  | < 2000 nM | ≥ 2000 nM
CC(NC(=O)c1c(N)nn2cccnc12)c1cc(Cl)c2cn[nH]c2c1OCCCN (stereo not drawn) [Example 64, 2-Amino-N-{1-[7-(3-aminopropoxy)-4-chloro-1H-indazol-6-yl]ethyl}pyrazolo[1,5-a]pyrimidine-3-carboxamide bis(trifluoroacetate)] |  | < 500 nM | < 500 nM
CC(NC(=O)c1c(N)nn2cccnc12)c1cc(Cl)c2cncn2c1N1CCCC(F)C1 (stereo not drawn) [Example 73C-73D, 2-Amino-N-{1-[8-chloro-5-(3-fluoropiperidin-1-yl)imidazo[1,5-a]pyridin-6-yl]ethyl}pyrazolo[1,5-a]pyrimidine-3-carboxamide] |  | < 500 nM | ≥ 2000 nM
CC(NC(=O)c1c(N)nn2cccnc12)c1cc(Cl)c2cn[nH]c2c1C1=CCN(C(=O)OCc2ccccc2)CC1 (stereo not drawn) [Example 98, Benzyl 4-[6-(1-{[(2-aminopyrazolo[1,5-a]pyrimidin-3-yl)carbonyl]amino}ethyl)-4-chloro-2H-indazol-7-yl]-3,6-dihydropyridine-1(2H)-carboxylate bis(trifluoroacetate)] |  | < 500 nM | < 2000 nM
CC(NC(=O)c1c(N)nn2cccnc12)c1cc(Cl)c2cn[nH]c2c1C1=CCNCC1 (stereo not drawn) [Example 99, 2-Amino-N-{1-[4-chloro-7-(1,2,3,6-tetrahydropyridin-4-yl)-2H-indazol-6-yl]ethyl}pyrazolo[1,5-a]pyrimidine-3-carboxamide bis(trifluoroacetate)] |  | < 500 nM | < 100 nM
CC(NC(=O)c1c(N)nn2cccnc12)c1cc(Cl)c2cn[nH]c2c1N1CCC(C(=O)N(C)C)CC1 (stereo not drawn) [Example 108, 2-Amino-N-[1-(4-chloro-7-{4-[(dimethylamino)carbonyl]piperidin-1-yl}-2H-indazol-6-yl)ethyl]pyrazolo[1,5-a]pyrimidine-3-carboxamide trifluoroacetate] |  | < 100 nM | < 500 nM
C[C@H](NC(=O)c1c(N)nn2cccnc12)c1cc(Cl)c2c(Cl)ncn2c1N1CCNS(=O)(=O)CC1 [Example 160, 2-Amino-N-{(1S)-1-[1,8-dichloro-5-(1,1-dioxido-1,2,5-thiadiazepan-5-yl)imidazo[1,5-a]pyridin-6-yl]ethyl}pyrazolo[1,5-a]pyrimidine-3-carboxamide trifluoroacetate salt] |  | < 100 nM | < 100 nM
C[C@H](NC(=O)c1c(N)nn2cccnc12)c1cc(Cl)c2c(Cl)ncn2c1N1CCNC(=O)CC1 [Example 161, 2-Amino-N-{(1S)-1-[1,8-dichloro-5-(5-oxo-1,4-diazepan-1-yl)imidazo[1,5-a]pyridin-6-yl]ethyl} pyrazolo[1,5-a] pyrimidine-3-carboxamide trifluoroacetate salt] |  | < 100 nM | < 100 nM
CCCC(NC(=O)c1c(N)nn2cccnc12)c1cc(Cl)c2cncn2c1N1CCS(=O)(=O)CC1 (stereo not drawn) [Example 178, trifluoroacetate salt] | < 500 nM |  | 

The next lines start with the values.

IC50 [1] | IC50 [2] | IC50 [3] | SMILES
< 500 nM | < 100 nM | < 100 nM | Cc1ncc2c(Cl)cc(C(C)NC(=O)c3c(N)nn4cccnc34)c(-c3cn[nH]c3)n12 (racemic) [Example 118, 2-Amino-N-{1-[8-chloro-3-methyl-5-(1H-pyrazol-4-yl)imidazo[1,5-a]pyridin-6-yl]ethyl}pyrazolo[1,5-a]pyrimidine-3-carboxamide trifluoroacetate salt]
< 500 nM | < 100 nM | < 500 nM | Cc1ncc2c(Cl)cc(C(C)NC(=O)c3c(N)nn4cccnc34)c(-c3cnn(C)c3)n12 (racemic) [Example 119, 2-Amino-N-{1-[8-chloro-3-methyl-5-(1-methyl-1H-pyrazol-4-yl)imidazo[1,5-a]pyridin-6-yl]ethyl}pyrazolo[1,5-a]pyrimidine-3-carboxamide trifluoroacetate salt]
< 500 nM | < 100 nM | < 500 nM | Cc1ncc2c(Cl)cc(C(C)NC(=O)c3c(N)nn4cccnc34)c(-c3ccccc3)n12 (racemic) [Example 121, 2-Amino-N-[1-(8-chloro-3-methyl-5-phenylimidazo[1,5-a]pyridin-6-yl)ethyl]pyrazolo[1,5-a]pyrimidine-3-carboxamide trifluoroacetate salt]
< 500 nM | < 100 nM | < 100 nM | Cc1nc(Cl)c2c(Cl)cc(C(C)NC(=O)c3c(N)nn4cccnc34)c(-c3cn[nH]c3)n12 (racemic) [Example 122, 2-Amino-N-{1-[1,8-dichloro-3-methyl-5-(1H-pyrazol-4-yl)imidazo[1,5-a]pyridin-6-yl]ethyl}pyrazolo[1,5-a]pyrimidine-3-carboxamide trifluoroacetate salt]
< 500 nM | < 100 nM | < 100 nM | Cc1nc(F)c2c(Cl)cc(C(C)NC(=O)c3c(N)nn4cccnc34)c(-c3cn[nH]c3)n12 (racemic) [Example 123, 2-Amino-N-{1-[8-chloro-1-fluoro-3-methyl-5-(1H-pyrazol-4-yl)imidazo[1,5-a]pyridin-6-yl]ethyl}pyrazolo[1,5-a]pyrimidine-3-carboxamide trifluoroacetate salt]
> 1000 nM | < 500 nM | ≥ 2000 nM | Cc1nc(C(F)(F)F)c2c(Cl)cc(C(C)NC(=O)c3c(N)nn4cccnc34)c(-c3ccccc3)n12 (racemic) [Example 124, 2-Amino-N-{1-[8-chloro-3-methyl-5-phenyl-1-(trifluoromethyl)imidazo[1,5-a]pyridin-6-yl]ethyl}pyrazolo[1,5-a]pyrimidine-3-carboxamide trifluoroacetate salt]
 | < 2000 nM | ≥ 2000 nM | CCOc1c(C(C)NC(=O)c2c(N)nn3cccnc23)cc(Cl)c2cn(C(C)C)nc12 (stereo not drawn) [Example 11a, 2-amino-N-(1-(4-chloro-7-ethoxy-2-isopropyl-2H-indazol-6-yl)ethyl)pyrazolo[1,5-a]pyrimidine-3-carboxamide trifluoroacetate]
< 1000 nM |  |  | CC(NC(=O)c1c(N)nn2cccnc12)c1cc(Cl)c2cn[nH]c2c1-c1ccccc1 (stereo not drawn) [Example 14]
< 500 nM |  |  | Cc1ncc2c(Cl)cc(C(C)NC(=O)c3c(N)nn4cccnc34)c(-c3cccc(F)c3)n12 (stereo not drawn) [Example 26]
